Patent US20240300980A1, “HETEROCYCLIC COMPOUNDS AS KRAS INHIBITOR, AND PREPARATION THEREFOR AND USE THEREOF IN TREATMENT” (SHANGHAI KECHOW PHARMA, INC., priority 2021, published 2024)

The compounds below were run on AGS cells (KRAS^G12D) (assay: Detection of cell proliferation in vitro by MTT/MTS method (cell activity experiment)). Conditions: AGS cells; MTT/MTS; 3 days of drug treatment; read-out: AGS IC50.
Type: cell-based
Procedure, shortened: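 After 3-day compound exposure (final DMSO 0.5%), viability of AGS (KRAS G12D) cells, plated 1000/well one day before dosing, was measured at 490 nm following 4 h MTT or MTS incubation. IC50 was fitted from dose–effect curves relative to DMSO-treated wells.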
`C#Cc1c(F)ccc2cc(O)cc(-c3ccc4c(N5C[C@H]6CC[C@@H](C5)[C@@H]6SC)nc(OC[C@@]56CCCN5C[C@H](F)C6)nc4c3F)c12` [Example 129, 5-ethynyl-6-fluoro-4-(8-fluoro-2-(((2R,7aS)-2-fluorotetrahydro-1H-pyrrolizin-7a(5H)-yl)methoxy)-4-((1R, 5S,8R)-8-(methylthio)-3-azabicyclo[3.2.1]octan-3-yl)quinazolin-7-yl)naphthalen-2-ol] showed an IC50 of over 2500 nM. For `CSc1c(F)ccc2cc(O)cc(-c3ccc4c(N5C[C@H]6CC[C@@H](C5)N6)nc(OC[C@@]56CCCN5C[C@H](F)C6)nc4c3F)c12` [Example 336, 4-(4-((1R,5S)-3,8-diazabicyclo[3.2.1]octan-3-yl)-8-fluoro-2-(((2R,7aS)-2-fluorotetrahvdro-1H-pyrrolizin-7a(5H)-yl)methoxy)quinazolin-7-yl)-6-fluoro-5-(methylthio)naphthalen-2-ol], the IC50 was 9.9 nM.

Same assay, conditions: Homo sapiens, AGS, 72 h, AGS cells; MTT/MTS; 3 days of drug treatment; read-out: AGS IC50
`Oc1cc2c(c(-c3ncc4c(N5C[C@H]6CC[C@@H](C5)N6)nc(OC[C@@]56CCCN5C[C@H](F)C6)nc4c3F)c1)C(F)CCC2` (stereo partly drawn) [Example 272, 4-(4-((1R,5S)-3,8-diazabicyclo[3.2.1]octan-3-yl)-8-fluoro-2-(((2R,7aS)-2-fluorotetrahydro-1H-pyrrolizin-7a(5H)-yl)methoxy)pyrido[4,3-d]pyrimidin-7-yl)-5-fluoro-5,6,7,8-tetrahydronaphthalen-2-ol] gave an IC50 of 70 nM. For `CCc1c(F)ccc2cc(O)cc(-c3ccc4c(N5C[C@H]6CC[C@@H](C5)C6(F)F)nc(OC[C@@]56CCCN5C[C@H](F)C6)nc4c3F)c12` [Example 120, 4-(4-((1R,5S)-8,8-difluoro-3-azabicyclo [3.2.1]octan-3-yl)-8-fluoro-2-(((2R,7aS)-2-fluorotetrahydro-1H-pyrrolizin-7a(5H)-yl)methoxy)quinazolin-7-yl)-5-ethyl-6-fluoronaphthalen-2-ol], the IC50 was over 2500 nM. With `COC1CCc2cc(O)cc(-c3ncc4c(N5C[C@H]6CC[C@@H](C5)N6)nc(OC[C@@]56CCCN5C[C@H](F)C6)nc4c3F)c21` (stereo partly drawn) [Example 269, 7-(4-((1R,5S)-3,8-diazabicyclo[3.2.1]octan-3-yl)-8-fluoro-2-(((2R,7aS)-2-fluorotetrahydro-1H-pyrrolizin-7a(5H)-yl)methoxy)pyrido[4,3-d]pyrimidin-7-yl)-1-methoxy-2,3-dihydro-1H-inden-5-ol] the IC50 was 30 nM. `C#Cc1c(F)ccc2cc(O)cc(-c3c(F)c4nc(OC[C@@]56CCCN5C[C@H](F)C6)nc(N5C[C@H]6CC[C@@H](C5)N6)c4c4cncn34)c12` [Example 398, 4-(1-((1R,5S)-3,8-diazabicyclo[3.2.1]octan-3-yl)-5-fluoro-3-(((2R,7aS)-2-fluorotetrahydro-1H-pyrrolizin-7a(5H)-yl)methoxy)imidazo[1′,5′:1,2]pyrido[4,3-d]pyrimidin-6-yl)-5-ethynyl-6-fluoronaphthalen-2-ol] was tested, and the IC50 was 50 nM. In the case of `Oc1ccc2c(C#Cc3ncc4c(N5C[C@H]6CC[C@@H](C5)N6)nc(OC[C@@]56CCCN5C[C@H](F)C6)nc4c3F)c(F)ccc2c1` [Example 368, 5-((4-((1R,5S)-3,8-diazabicyclo[3.2.1]octan-3-yl)-8-fluoro-2-(((2R,7aS)-2-fluorotetrahydro-1H-pyrrolizin-7a(5H)-yl)methoxy)pyrido[4,3-d]pyrimidin-7-yl)ethynyl)-6-fluoronaphthalen-2-ol], the IC50 is reported as 55 nM. For `C#Cc1c(F)ccc2cc(N)nc(-c3ncc4c(N5C[C@H]6CC[C@@H](C5)N6)nc(OC[C@@]56CCCN5C[C@H](F)C6)nc4c3F)c12` [Example 40, 1-(4-((1R,5S)-3,8-diazabicyclo[3.2.1]octan-3-yl)-8-fluoro-2-(((2R,7aS)-2-fluorotetrahydro-1H-pyrrolizin-7a(5H)-yl)methoxy)pyrido[4,3-d]pyrimidin-7-yl)-8-ethynyl-7-fluoroisoquinolin-3-amine], the IC50 was over 2500 nM. With `C#Cc1cccc2cc(O)cc(-c3ncc4c(N5C[C@H]6CC[C@@H](C5)N6)nc(OCC5(CN6CCCC6)CC5)nc4c3F)c12` [Example 1, 4-(4-((1R,5S)-3,8-diazabicyclo[3.2.1]octan-3-yl)-8-fluoro-2-((1-(pyrrolidin-1-ylmethyl)cyclopropyl)methoxy)pyrido[4,3-d]pyrimidin-7-yl)-5-ethynyl naphthalen-2-ol] the IC50 was 8.1 nM. Work on `CC1CCCc2cc(O)cc(-c3ccc4c(NCC5(N(C)C)CCC5)nc(OC[C@@]56CCCN5C[C@H](F)C6)nc4c3F)c21` (stereo partly drawn) [Example 427, 4-(4-(((1-(dimethylamino)cyclobutyl)methyl)amino)-8-fluoro-2-(((2R,7aS)-2-fluorotetrahydro-1H-pyrrolizin-7a(5H)-yl)methoxy)quinazolin-7-yl)-5-methyl-5,6,7,8-tetrahydronaphthalen-2-ol] yielded an IC50 of 55 nM. Compound `C#Cc1c(F)ccc2cc(O)cc(-c3c(F)c4nc(OC[C@@]56CCCN5C[C@H](F)C6)nc(N5C[C@H]6CC[C@@H](C5)N6)c4c4nccn34)c12` [Example 399, 4-(10-((1R,5S)-3,8-diazabicyclo[3.2.1]octan-3-yl)-6-fluoro-8-(((2R,7aS)-2-fluorotetrahydro-1H-pyrrolizin-7a(5H)-yl)methoxy)imidazo[1′,2′:1,2]pyrido[4,3-d]pyrimidin-5-yl)-5-ethynyl-6-fluoronaphthalen-2-ol] has an IC50 of 65 nM. In the case of `Oc1cc2c(c(-c3ccc4c(N5C[C@H]6CC[C@@H](C5)N6)nc(OC[C@@]56CCCN5C[C@H](F)C6)nc4c3F)c1)C1CC1C2` (stereo partly drawn) [Example 156, 2-(4-((1R,5S)-3,8-diazabicyclo[3.2.1]octan-3-yl)-8-fluoro-2-(((2R,7aS)-2-fluorotetrahydro-1H-pyrrolizin-7a(5H)-yl)methoxy)quinazolin-7-yl)-1,1a,6,6a-tetrahydrocyclopropa [a]inden-4-ol], the IC50 is reported as 40 nM. Compound `C#CC1CCc2cc(O)cc(-c3ncc4c(N5C[C@H]6CC[C@@H](C5)N6)nc(OC[C@@]56CCCN5C[C@H](F)C6)nc4c3F)c21` (stereo partly drawn) [Example 247, 7-(4-((1R,5S)-3,8-diazabicyclo[3.2.1]octan-3-yl)-8-fluoro-2-(((2R,7aS)-2-fluorotetrahydro-1H-pyrrolizin-7a(5H)-yl)methoxy)pyrido[4,3-d]pyrimidin-7-yl)-1-ethynyl-2,3-dihydro-1H-inden-5-ol] has an IC50 of 6.1 nM. Compound `C#Cc1c(F)ccc2cccc(-c3ccc4c(N5C[C@H]6CC[C@@H](C5)N6)nc(OC[C@]56CCCN5[C@@H](COC(=O)N(C)C)CC6)nc4c3F)c12` [Example 98, ((3R,7aR)-7a-(((4-((1R,5S)-3,8-diazabicyclo[3.2.1]octan-3-yl)-7-(8-ethynyl-7-fluoronaphthalen-1-yl)-8-fluoroquinazolin-2-yl)oxy)methyl)hexahydro-1H-pyrrolizin-3-yl) methyl dimethylcarbamate] has an IC50 of 129 nM. `CCC1COc2cc(O)cc(-c3ccc4c(N5C[C@H]6CC[C@@H](C5)N6)nc(OC[C@@]56CCCN5C[C@H](F)C6)nc4c3F)c21` (stereo partly drawn) [Example 292, 4-(4-((1R,5S)-3,8-diazabicyclo[3.2.1]octan-3-yl)-8-fluoro-2-(((2R,7aS)-2-fluorotetrahydro-1H-pyrrolizin-7a(5H)-yl)methoxy)quinazolin-7-yl)-3-ethyl-2,3-dihydrobenzofuran-6-ol] showed an IC50 of 40 nM. In the case of `Oc1ccc2ccccc2c1C#Cc1ccc2c(N3C[C@H]4CC[C@@H](C3)N4)nc(OC[C@@]34CCCN3C[C@H](F)C4)nc2c1F` [Example 365, 1-((4-((1R,5S)-3,8-diazabicyclo[3.2.1]octan-3-yl)-8-fluoro-2-(((2R,7aS)-2-fluorotetrahydro-1H-pyrrolizin-7a(5H)-yl)methoxy)quinazolin-7-yl)ethynyl)naphthalen-2-ol], the IC50 is reported as 3640 nM.
